For assay [1], the system named is UKF-NB3 Par. cells. Description: MTT cytotoxicity test, parental neuroblastoma cells. Format: cell-based. The settings on record: Homo sapiens, UKF-NB-3, 120 h, 5 days incubation. For orientation: Formazan colour is commonly taken as a measure of viable cells.
Assay [2] relates to UKF-NB3 Dxr-R. cells. Kind of assay: MTT cytotoxicity test, doxorubicin-resistant neuroblastoma cells. Format: cell-based, human. Conditions: 5 days incubation. Here is the method: To test the cytotoxicity of the doxorubicin nanoparticles (Dxr-NP) produced, as compared to a doxorubicin solution (Dxr-Soln) and a liposomal doxorubicin preparation (CAELYX®), the following cell lines were used:
doxorubicin-resistant cells of the human neuroblastoma cell line of the Universitätsklinikum Frankfurt (UKF-NB3 Dxr-R.)
To determine the cytotoxicity, the MTT test was used. In this test the viability of the cells in the presence of different concentrations of a substance is determined and is then compared with a cell control. From the results, the IC50 value (inhibitory concentration 50), i.e. the concentration of a substance at which 50% of the cells die, can be calculated. […] After dissolving the crystals with SDS/DMF solution, the colour intensity can be measured photometrically. […]
One column of the wells contained pure medium and corresponded to the blank value; in a second column the cells for the growth control (100% value) were cultivated. […] After a further incubation at 37° C. overnight, the colour crystals had dissolved completely, and the colour intensity in each well was measured photometrically at […]. By subtracting the blank value from the measured values and with reference to the control, the cell viability can be expressed in percent.

≈ marks a conversion by molar mass, not a printed value. Where two headings read alike, the source gives them in different places.

As a reminder, the IC50 is the concentration needed to halve the response being measured. `COc1cccc2c1C(=O)c1c(O)c3c(c(O)c1C2=O)C[C@@](O)(C(=O)CO)C[C@@H]3O[C@H]1C[C@H](N)[C@H](O)[C@H](C)O1` [Dxr-Soln, doxorubicin]: the IC50 was 1.6 ng/mL (≈ 0.00294 µM) in assay [1]; 53.5 ng/mL (≈ 0.0984 µM) in assay [2]; 53.5 ng/mL (≈ 0.0984 µM) in assay [2] (Homo sapiens, UKF-NB-3, 120 h, read-out: IC50).

The values are drawn from patent US20090181090A1, “Protein-Based Carrier System for Overcoming Resistance in Tumour Cells” (priority 2005, published 2009).
